# Assay results from article PMC6037002, “Drug targeting to decrease cardiotoxicity – determination of the cytotoxic effect of GnRH-based conjugates containing doxorubicin, daunorubicin and methotrexate on human cardiomyocytes and endothelial cells” (Beilstein Journal of Organic Chemistry, 2018).
# Like-named read-outs stand apart in the source and are kept apart here.
# Experiments:
# [1] = system: human acute monocytic leukemia (MonoMac6) cells; conditions: cited from earlier work
# Text: (§1) Table 1 Comparative study of cytotoxic effects and cardiotoxicity elicited by GnRH-based antitumor compounds (1–15) and reference substances (AN-152, Dox, Dau, Mtx). IC50 values show antitumor cytotoxic characteristics of the conjugates in human breast cancer (MCF-7), human colorectal adenocarcinoma (HT-29) and human acute monocytic leukemia (MM6) derived cell lines as representative tumor cells.
# [2] = system: primary human cardiac myocytes (HCM); conditions: for delta slope (DS), short-term / delta slope (DS), long-term: HCM, three parallels; for delta slope (DS), short-term: 0–2 h; for delta slope (DS), long-term: 0–72 h
# Text: (§2) The main objective of the study reported here was to evaluate the in vitro cardiotoxic effects (as undesired side effects) of […] GnRH-III-based conjugates containing doxorubicin, daunorubicin and methotrexate on two essential target cells of cardiovascular diseases: vascular endothelial cells and cardiomyocytes. The rate of cytotoxicity (antitumor effect) vs cardiotoxicity (toxic effects on cardiomyocytes and vascular endothelium) is an important factor for efficient drug development for targeted tumor therapy with minimized side effects. The technique used in this work – impedimetry – is a dedicated one for real-time monitoring of cells to distinguish short-term (0–2 hours) and long-term (0–72 hours) effects elicited by the drug or carrier–drug conjugates. The basic theory of impedimetry is that proliferation/viability of cells is well detectable by monitoring of the electric impedance (Z) in an AC environment, due to the electric insulator character of intact surface membranes composed of the phospholipid bilayer. […] While cell physiological responses of short-term exposures result in characteristic changes of cell morphology (e.g., spreading), long-term effects characteristically influence in particular the proliferation of cells, and therefore the cytotoxic effects. The presented dimensionless values of delta slope (DS) measure the difference between the slope of the curve corresponding to the treatment and that of the control curve in impedimetric recordings, the negative signs refer to the relative values to the identical control.
# (§3) Experimental part – Cellular samples
# (§4) In the present study, GnRH conjugates containing anti-tumour drugs (e.g., daunorubicin, doxorubicin) were investigated in order to evaluate whether the conjugates exert a decrease cardiotoxic effect compared to that of the free drugs. The cardiac myocytes and the vascular endothelium cells are the most frequently detected target cells of antitumor compounds and they are employed in our study. Human umbilical vein endothelial cells (HUVEC; Promocell, Biomedica, Wien, Austria) were cultured in Endothelial Cell Growth Medium with Endothelial Cell Growth Supplement Mix (Promocell, Biomedica, Wien, Austria) and 100 µg/mL penicillin/streptomycin. Primary human cardiac myocytes (HCM; Promocell, Biomedica, Wien, Austria) were cultured in Myocyte Growth Medium (Promocell, Biomedica, Wien, Austria).
# (§5) Impedimetric measurements
# (§6) The xCELLigence SP system was used for impedimetric measurements. The bottom of the wells of a 96-well E-plate is installed with a golden electrode array that constitutes the adhesion surface. Adhering cells – acting as insulators – change the electric impedance measured on the electrodes. The measured impedance change is in direct correlation with the number of adhering cells and the extent of adhesion. The results of impedance change are given in the form of Cell Index (CI) calculated by the xCELLigence system according to the […]
# (§7) where Zt is the measured impedance in a time point, Zb is the background impedance and F is an inbuilt factor (F = 15 at 10 kHz) depending on the frequency of the alternating current. The measurements took place in an incubator holding a 37 °C temperature and 5% carbon-dioxide […]
# (§8) The experiments started with a measurement of baseline impedance for 1 hour. After that, the cells (10^4 cells/well) were added to the wells and allowed to adhere to the electrodes. When the adhering cells reached a balanced state in the wells, signified by the impedance curves […]
# (§9) free drugs at 10−12 – 10−6 M and the conjugates at 10−8 – 10−6 M final concentrations were […]
# (§10) added to the wells. The changes in impedance were measured for at least 72 hours. For each measurement three parallels were measured.
# (§11) The evaluation of responses followed the previously described strategy: acute effects of compounds were evaluated as a characteristic morphology of the curves in the 0–2 hours
# [3] = system: human umbilical vein endothelial cells (HUVEC); test: Impedimetric measurement (xCELLigence SP), delta slope, HUVEC; conditions: for delta slope (DS), short-term / delta slope (DS), long-term: HUVEC, three parallels; for delta slope (DS), short-term: 0–2 h; for delta slope (DS), long-term: 0–72 h; for cytotoxic effect on HUVEC, result in words: long-term (0–72 h), 10^−8–10^−6 mol/L, impedimetry, one-way ANOVA
# Text: as §2, §3, §4, §5, §6, §7, §8, §9, §10, §11
# [4] = system: MCF-7 human breast adenocarcinoma cells; conditions: MTT assay; cited from earlier work
# Text: as §1
# [5] = system: HT-29 human colon adenocarcinoma cells; conditions: MTT assay; cited from earlier work
# Text: as §1
# [6] = grade +++/++/+/0, key not given, summary of impedimetric cytotoxicity
compound,measurement,setting,value
{GnRH-III(Dau=Aoa-YRRL-C)}2 [conjugate 11],IC50,[1],420 ± 50 nM
same,"delta slope (DS), short-term","[2]; Table S4b, 10^-6 mol/L",-0.004
same,"delta slope (DS), short-term","[2]; Table S4b, 10^-7 mol/L",-0.001
same,"delta slope (DS), short-term","[2]; Table S4b, 10^-8 mol/L",-0.001
same,"delta slope (DS), long-term","[2]; Table S4b, 10^-6 mol/L",−0.004
same,"delta slope (DS), long-term","[2]; Table S4b, 10^-7 mol/L",-0.002
same,"delta slope (DS), long-term","[2]; Table S4b, 10^-8 mol/L",-0.001
same,"delta slope (DS), short-term","[3]; Table S4a, 10^-6 mol/L",0.014
same,"delta slope (DS), short-term","[3]; Table S4a, 10^-7 mol/L",0.002
same,"delta slope (DS), short-term","[3]; Table S4a, 10^-8 mol/L",0.022
same,"delta slope (DS), long-term","[3]; Table S4a, 10^-6 mol/L",−0.017
same,"delta slope (DS), long-term","[3]; Table S4a, 10^-7 mol/L",−0.005
same,"delta slope (DS), long-term","[3]; Table S4a, 10^-8 mol/L",0.001
[GnRH-III(Dau=Aoa-C)]2 [conjugate 9],IC50,[1],1690 ± 410 nM
same,IC50,[4],4.1 ± 0.8 µM
same,"delta slope (DS), short-term","[2]; Table S4b, 10^-6 mol/L",0.003
same,"delta slope (DS), short-term","[2]; Table S4b, 10^-7 mol/L",0.002
same,"delta slope (DS), short-term","[2]; Table S4b, 10^-8 mol/L",-0.001
same,"delta slope (DS), long-term","[2]; Table S4b, 10^-6 mol/L",-0.001
same,"delta slope (DS), long-term","[2]; Table S4b, 10^-7 mol/L",-0.001
same,"delta slope (DS), long-term","[2]; Table S4b, 10^-8 mol/L",-0.002
same,"Cardiotoxicity, HCM",[2]; [6],0
same,"cytotoxic effect on HCM, result in words","[2]; long-term (0–72 h), 10^−8–10^−6 mol/L (free drugs 10^−12–10^−6 mol/L), impedimetry, one-way ANOVA",completely lost their cytotoxic effect
same,"delta slope (DS), short-term","[3]; Table S4a, 10^-6 mol/L",0.014
same,"delta slope (DS), short-term","[3]; Table S4a, 10^-7 mol/L",0.008
same,"delta slope (DS), short-term","[3]; Table S4a, 10^-8 mol/L",0.001
same,"delta slope (DS), long-term","[3]; Table S4a, 10^-6 mol/L",0.001
same,"delta slope (DS), long-term","[3]; Table S4a, 10^-7 mol/L",-0.001
same,"delta slope (DS), long-term","[3]; Table S4a, 10^-8 mol/L",-0.002
same,"Cardiotoxicity, HUVEC",[3]; [6],0
same,"cytotoxic effect on HUVEC, result in words",[3],completely lost the cytotoxic effect
{[^4N-MeSer]-GnRH-III(Dau=Aoa-C)}2 (disulfide) [conjugate 10],IC50,[1],783 ± 90 nM
same,IC50,[4],6.2 ± 1.5 µM
same,"delta slope (DS), short-term","[2]; Table S4b, 10^-6 mol/L",0.001
same,"delta slope (DS), short-term","[2]; Table S4b, 10^-7 mol/L",-0.001
same,"delta slope (DS), short-term","[2]; Table S4b, 10^-8 mol/L",-0.002
same,"delta slope (DS), long-term","[2]; Table S4b, 10^-6 mol/L",−0.005
same,"delta slope (DS), long-term","[2]; Table S4b, 10^-7 mol/L",−0.003
same,"delta slope (DS), long-term","[2]; Table S4b, 10^-8 mol/L",-0.001
same,"delta slope (DS), short-term","[3]; Table S4a, 10^-6 mol/L",0.017
same,"delta slope (DS), short-term","[3]; Table S4a, 10^-7 mol/L",0.011
same,"delta slope (DS), short-term","[3]; Table S4a, 10^-8 mol/L",0.008
same,"delta slope (DS), long-term","[3]; Table S4a, 10^-6 mol/L",0.004
same,"delta slope (DS), long-term","[3]; Table S4a, 10^-7 mol/L",0.002
same,"delta slope (DS), long-term","[3]; Table S4a, 10^-8 mol/L",0.001
same,"Cardiotoxicity, HUVEC",[3]; [6],0
same,"cytotoxic effect on HUVEC, result in words",[3],completely lost the cytotoxic effect
CN(Cc1cnc2nc(N)nc(N)c2n1)c1ccc(C(=O)N[C@@H](CCC(=O)O)C(=O)O)cc1 [methotrexate],IC50,[1],8 ± 0.2 nM
same,IC50,[5],1400 ± 600 nM
same,"Cardiotoxicity, HCM",[2],0
same,"cytotoxic effect on HCM, result in words",[2],no significant effect was measured
same,"delta slope (DS), short-term","[2]; Table S1b, 10^-6 mol/L",0.005
same,"delta slope (DS), short-term","[2]; Table S1b, 10^-7 mol/L",0.001
same,"delta slope (DS), short-term","[2]; Table S1b, 10^-8 mol/L",0.001
same,"delta slope (DS), short-term","[2]; Table S1b, 10^-9 mol/L",-0.001
same,"delta slope (DS), short-term","[2]; Table S1b, 10^-10 mol/L",0.001
same,"delta slope (DS), short-term","[2]; Table S1b, 10^-11 mol/L",0.001
same,"delta slope (DS), short-term","[2]; Table S1b, 10^-12 mol/L",0.002
same,"delta slope (DS), short-term","[2]; Table S5b, 10^-6 mol/L",0.001
same,"Cardiotoxicity, HUVEC",[3],+
same,"delta slope (DS), short-term","[3]; Table S1a, 10^-6 mol/L",0.001
same,"delta slope (DS), short-term","[3]; Table S1a, 10^-7 mol/L",0.002
same,"delta slope (DS), short-term","[3]; Table S1a, 10^-8 mol/L",0.013
same,"delta slope (DS), short-term","[3]; Table S1a, 10^-9 mol/L",0.019
same,"delta slope (DS), short-term","[3]; Table S1a, 10^-10 mol/L",0.012
same,"delta slope (DS), short-term","[3]; Table S1a, 10^-11 mol/L",0.013
same,"delta slope (DS), short-term","[3]; Table S1a, 10^-12 mol/L",0.015
same,"delta slope (DS), short-term","[3]; Table S5a, 10^-6 mol/L",0.005
same,"delta slope (DS), short-term","[3]; Table S5a, 10^-7 mol/L",0.003
same,"delta slope (DS), short-term","[3]; Table S5a, 10^-8 mol/L",-0.003
